Here are results for 15 compounds from publication PMC8745223, “Novel 1,3,5-Triazinyl Aminobenzenesulfonamides Incorporating Aminoalcohol, Aminochalcone and Aminostilbene Structural Motifs as Potent Anti-VRE Agents, and Carbonic Anhydrases I, II, VII, IX, and XII Inhibitors” (International Journal of Molecular Sciences, 2021).

The subject of experiment [1] is T1, E. faecalis ATCC 29212 (EF).
T1 construct: ATCC 29212
Description: microbe, parasite or virus in culture. Also on record: broth microdilution MIC in BHI, Alamar Blue read-out, 37 °C. The following applies: Enterococcus faecalis, ATCC29212, 24 h. The protocol:
(§1) The inhibition activity against enterococci was evaluated by the microtitration broth method according to the Clinical and Laboratory Standards Institute with some modifications. The compounds were dissolved in DMSO and serially diluted in Brain Hearth Infusion (BHI) to reach concentrations 256–2 µg/mL. […] The experiment was repeated at least three times. All the investigated compounds were tested on their anti-staphylococcal activity against three clinical isolates of methicillin-resistant Staphylococcus aureus (MRSA) and S. aureus ATCC 29213 as the reference and quality control strain.

Experiment [2] deals with T2, Enterococcus faecalis VRE 368.
T2 construct: VRE 368 (vanA clinical isolate)
As to the kind of experiment: organism not typed. Also on record: broth microdilution MIC in BHI, Alamar Blue read-out, 37 °C. The note with it: 24 h. The procedure: as §1

Experiment [3] has as its system T3, Enterococcus faecalis VRE 342 B.
T3 construct: VRE 342 B (vanA clinical isolate)
Description: organism not typed. Also on record: broth microdilution MIC in BHI, Alamar Blue read-out, 37 °C. The following applies: 24 h. The protocol: as §1

The subject of experiment [4] is T4, Enterococcus faecalis VRE 725 B.
T4 construct: VRE 725B (vanA clinical isolate)
As to the kind of experiment: organism not typed. Details: broth microdilution MIC in BHI, Alamar Blue read-out, 37 °C. The following applies: 24 h. The procedure:
as §1, with “strain. […] All the compounds were tested against Enterococcus faecalis ATCC 29212 as the reference strain and three isolates from American crows of vanA-carrying vancomycin-resistant E. faecalis (VRE), and the activities, expressed as minimum inhibitory concentrations (MICs), are listed in Table 3.” for “strain.”

The target of experiment [5] is T5, hCA IX (Homo sapiens, UniProt Q16790).
T5 construct: gene CA9; recombinant
Description: stopped-flow CO2 hydration assay. It counts as biochemical. A digest of the protocol: (§2)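 Ki was derived by non-linear least squares using the Cheng–Prusoff equation. The underlying data were initial rates of CO2 hydration by recombinant human carbonic anhydrase, measured by stopped-flow for 10–100 s with 0.2 mM phenol red (557 nm), 20 mM Hepes pH 7.5, 20 mM Na2SO4 and 1.7–17 mM CO2, after a 15 min room-temperature preincubation of enzyme with inhibitor. Uncatalysed rates were subtracted, at least six traces were used per rate, and values were averaged over three or more determinations.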

The target in experiment [6] is T6, hCA II (Homo sapiens, UniProt P00918).
T6 construct: gene CA2; recombinant
As to the kind of experiment: stopped-flow CO2 hydration assay. It counts as biochemical. The gist of the method:
as §2

The target in experiment [7] is T7, hCA XII (Homo sapiens, UniProt O43570).
T7 construct: gene CA12; recombinant
T7 sequence (O43570 25-354): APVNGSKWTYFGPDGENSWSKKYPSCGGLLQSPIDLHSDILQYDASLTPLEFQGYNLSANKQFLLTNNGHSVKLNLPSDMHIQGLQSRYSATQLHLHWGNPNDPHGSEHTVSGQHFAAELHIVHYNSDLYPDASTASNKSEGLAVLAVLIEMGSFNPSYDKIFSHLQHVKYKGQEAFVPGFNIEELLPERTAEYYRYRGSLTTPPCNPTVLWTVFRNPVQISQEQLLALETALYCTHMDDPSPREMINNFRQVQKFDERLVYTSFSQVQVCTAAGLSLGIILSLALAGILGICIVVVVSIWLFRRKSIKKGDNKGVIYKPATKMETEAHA
Description: stopped-flow CO2 hydration assay. It counts as biochemical. The gist of the method: as §2

In experiment [8] the target is T8, hCA I (Homo sapiens, UniProt P00915).
T8 construct: gene CA1; recombinant
T8 sequence (P00915 2-261): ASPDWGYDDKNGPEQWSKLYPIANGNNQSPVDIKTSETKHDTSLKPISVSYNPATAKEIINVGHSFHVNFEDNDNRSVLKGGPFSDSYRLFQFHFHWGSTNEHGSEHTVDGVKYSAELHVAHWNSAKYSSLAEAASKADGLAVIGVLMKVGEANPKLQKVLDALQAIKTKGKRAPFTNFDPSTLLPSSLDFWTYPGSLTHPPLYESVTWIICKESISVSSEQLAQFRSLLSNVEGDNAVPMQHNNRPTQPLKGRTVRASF
Description: stopped-flow CO2 hydration assay. It counts as biochemical. A digest of the protocol: as §2

Values after ≈ are worked out from the molar mass of the structure shown.

Consider `NS(=O)(=O)c1ccc(CNc2nc(Cl)nc(NCc3ccc(S(N)(=O)=O)cc3)n2)cc1` [7 ^a], for which the MIC was 16.5 µM (≈ 7.98 µg/mL) in experiment [1], 33 µM (≈ 16 µg/mL) in experiment [2], 66 µM (≈ 31.9 µg/mL) in experiment [3] and 131 µM (≈ 63.4 µg/mL) in experiment [4].

In the case of `CC1(C)S[C@@H]2[C@H](NC(=O)[C@H](N)c3ccccc3)C(=O)N2[C@H]1C(=O)O` [ampicillin], the “MIC [µM] / VRE 725 B” value in experiment [4] (inhibitor) is 5.72 µM (≈ 2 µg/mL).

In general, Ki refers to a dissociation constant, usually derived from enzyme kinetics or from competition with a known ligand. Consider `NS(=O)(=O)c1ccc(Nc2nc(NCCCO)nc(Nc3ccc(/C=C/c4cccc(O)c4)cc3)n2)cc1` [compound 4, (E)-4-({4-[(3-Hydroxypropyl)amino]-6-{[4-(3-hydroxystyryl)phenyl]amino}-1,3,5-triazin-2-yl}amino)benzenesulfonamide], for which the Ki in experiment [5] was 27.5 nM; in experiment [6], 3640 nM; in experiment [7], 65.8 nM; in experiment [8], 7520 nM.

For the compound `NS(=O)(=O)c1ccc(CNc2nc(NCCCO)nc(Nc3ccc(/C=C/c4cccc(O)c4)cc3)n2)cc1` [compound 17, 17], the MIC is above 467 µM in experiment [1], 467 µM (≈ 256 µg/mL) in experiment [2], above 467 µM in experiment [3] and above 467 µM in experiment [4]. Moreover, the Ki in experiment [5] is 22.2 nM; in experiment [6], 46.8 nM; in experiment [7], 493 nM; in experiment [8] it was 358 nM.

With `NS(=O)(=O)c1ccc(CCNc2nc(NCCCO)nc(Nc3ccc(/C=C/c4ccccc4)cc3)n2)cc1` [compound 30, (E)-4-[2-({4-[(3-Hydroxypropyl)amino]-6-[(4-styrylphenyl)amino]-1,3,5-triazin-2-yl}amino)ethyl]benzenesulfonamide], the MIC in experiment [1], in experiment [2], in experiment [3] and in experiment [4] was above 469 µM in each case. Besides, the Ki in experiment [5] was determined as 12.1 nM; in experiment [6], 5130 nM; in experiment [7], 7.6 nM; in experiment [8], 5700 nM.

For `NS(=O)(=O)c1ccc(CCNc2nc(NCC(O)CO)nc(Nc3ccc(/C=C/c4ccccc4)cc3)n2)cc1` (stereo not shown) [compound 31, (E)-4-{2-[(4-[(2,3-Dihydroxypropyl)amino]-6-[(4-styrylphenyl)amino]-1,3,5-triazin-2-yl)amino]ethyl}benzenesulfonamide], the MIC in experiment [1], in experiment [2], in experiment [3] and in experiment [4] was above 455 µM in each case. Moreover, the Ki in experiment [5] came to 248 nM; in experiment [6], 335 nM; in experiment [7] it was 4.4 nM; in experiment [8] it was 36.9 nM.

For the compound `NS(=O)(=O)c1ccc(CCNc2nc(Nc3ccc(O)cc3)nc(Nc3ccc(/C=C/c4ccccc4)cc3)n2)cc1` [compound 32, (E)-4-{2-[(4-[(4-Hydroxyphenyl)amino]-6-[(4-styrylphenyl)amino]-1,3,5-triazin-2-yl)amino]ethyl}benzenesulfonamide], the MIC in experiment [1] amounted to 13.8 µM (≈ 8 µg/mL); in experiment [2], 27.6 µM (≈ 16 µg/mL); in experiment [3] it was 27.6 µM (≈ 16 µg/mL); in experiment [4], 55.2 µM (≈ 32 µg/mL). Moreover, the Ki is 2470 nM in experiment [5], 7490 nM in experiment [6], 5.9 nM in experiment [7] and 90.6 nM in experiment [8].

With `NS(=O)(=O)c1ccc(CCNc2nc(NCc3ccc(S(N)(=O)=O)cc3)nc(Nc3ccc(/C=C/c4ccccc4)cc3)n2)cc1` [compound 33], the MIC in experiment [1] was 97.4 µM (≈ 64 µg/mL); in experiment [2], 389 µM (≈ 255 µg/mL); in experiment [3] it was 194 µM (≈ 127 µg/mL); in experiment [4] it was 194 µM (≈ 127 µg/mL). The Ki came out at 1970 nM in experiment [5], 57.9 nM in experiment [6], 6.2 nM in experiment [7] and 48 nM in experiment [8].

For `NS(=O)(=O)c1ccc(CCNc2nc(NCC(O)CO)nc(Nc3ccc(/C=C/c4ccccc4O)cc3)n2)cc1` (stereo not shown) [compound 34, (E)-4-{2-[(4-[(2,3-Dihydroxypropyl)amino]-6-{[4-(2-hydroxystyryl)phenyl]amino}-1,3,5-triazin-2-yl)amino]ethyl}benzenesulfonamide], the MIC in experiment [1], in experiment [2], in experiment [3] and in experiment [4] was above 443 µM each time. Further, the Ki in experiment [5] was determined as 2710 nM; in experiment [6] it was 5630 nM; in experiment [7], 8.5 nM; in experiment [8] it was 1670 nM.

Turning to `NS(=O)(=O)c1ccc(CCNc2nc(Nc3ccc(O)cc3)nc(Nc3ccc(/C=C/c4ccccc4O)cc3)n2)cc1` [compound 35, 35], the MIC in experiment [1], in experiment [2], in experiment [3] and in experiment [4] was above 429 µM in each case. In addition, the Ki in experiment [5] worked out at 238 nM; in experiment [6], 5470 nM; in experiment [7], 37.1 nM; in experiment [8] it was 3940 nM.

Turning to `NS(=O)(=O)c1ccc(CCNc2nc(NCc3ccc(S(N)(=O)=O)cc3)nc(Nc3ccc(/C=C/c4ccccc4O)cc3)n2)cc1` [compound 36, (E)-4-{2-[(4-{[4-(2-Hydroxystyryl)phenyl]amino}-6-[(4-sulfamoylbenzyl)amino]-1,3,5-triazin-2-yl)amino]ethyl}benzenesulfonamide], the MIC in experiment [1], in experiment [2], in experiment [3] and in experiment [4] was above 380 µM in each case. The Ki was found to be 2720 nM in experiment [5], 82 nM in experiment [6], 8.3 nM in experiment [7] and 448 nM in experiment [8].

As to `NS(=O)(=O)c1ccc(CCNc2nc(NCCCO)nc(Nc3ccc(/C=C/c4cccc(O)c4)cc3)n2)cc1` [compound 37, 37], the MIC in experiment [1], in experiment [2], in experiment [3] and in experiment [4] was above 455 µM each time. In addition, the Ki amounted to 26.4 nM in experiment [5], 73.5 nM in experiment [6], 601 nM in experiment [7] and 675 nM in experiment [8].

For `NS(=O)(=O)c1ccc(CCNc2nc(NCC(O)CO)nc(Nc3ccc(/C=C/c4cccc(O)c4)cc3)n2)cc1` (stereo not shown) [compound 38, (E)-4-{2-[(4-[(2,3-Dihydroxypropyl)amino]-6-{[4-(3-hydroxystyryl)phenyl]amino}-1,3,5-triazin-2-yl)amino]ethyl}benzenesulfonamide], the MIC in experiment [1], in experiment [2], in experiment [3] and in experiment [4] was above 443 µM throughout. Besides, the Ki in experiment [5] was determined as 17.3 nM; in experiment [6], 4440 nM; in experiment [7] it was 84.5 nM; in experiment [8], 6730 nM.

Consider `NS(=O)(=O)c1ccc(CCNc2nc(Nc3ccc(O)cc3)nc(Nc3ccc(/C=C/c4cccc(O)c4)cc3)n2)cc1` [compound 39, 39], for which the MIC in experiment [1], in experiment [2], in experiment [3] and in experiment [4] was above 429 µM each time. Also, the Ki in experiment [5] turned out to be 876 nM; in experiment [6], 154 nM; in experiment [7], 68.5 nM; in experiment [8] it was 742 nM.

For `CN[C@H](CC(C)C)C(=O)N[C@H]1C(=O)N[C@@H](CC(N)=O)C(=O)N[C@H]2C(=O)N[C@H]3C(=O)N[C@H](C(=O)N[C@H](C(=O)O)c4cc(O)cc(O)c4-c4cc3ccc4O)[C@H](O)c3ccc(c(Cl)c3)Oc3cc2cc(c3O[C@@H]2O[C@H](CO)[C@@H](O)[C@H](O)[C@H]2O[C@H]2C[C@](C)(N)[C@H](O)[C@H](C)O2)Oc2ccc(cc2Cl)[C@H]1O` [vancomycin], the MIC in experiment [2] came out at 353 µM (≈ 512 µg/mL); in experiment [3] it was 353 µM (≈ 512 µg/mL); in experiment [4] it was 706 µM (≈ 1020 µg/mL).
